Read-outs that look alike come from different tables or passages of the source.

The test system of one test is PC12 cells. Particulars: via TrkA receptors; ref [38]; cited from earlier work.
A further test relates to sensory neurons. Particulars: via TrkA receptors; ref [39]; cited from earlier work.
Test [1] concerns voltage-gated sodium channels (VGSCs), Na+ currents in SCNs. Put plainly: Na+ currents, whole-cell patch clamp in SCNs. Type of test: cell-based, C57BL/6 mice. The method, then: (§1) SCN cultures were performed as described previously. The dissociated neurons were planted into poly-L-lysine-coated 35 mm Petri dishes, 96-well plates at densities of 2 × 10^3 cells/dish for patch clamp, 2.25 × 10^5 and 2 × 10^3 cells/well for Ca^2+ imaging and neurite outgrowth experiments, respectively. Cells at 6–8 DIVs (days in vitro) were used to measure K^+ and Na^+ currents, membrane potential, or intracellular Ca^2+ concentration ([Ca^2+]i).
(§2) Current-clamp recordings can provide useful information about the contribution of a channel to membrane potential. Membrane potentials, Na^+ and K^+ currents in SCNs (6–8 DIVs), were recorded using whole-cell patch clamp using an EPC-10 amplifier and PatchMaster software (HEKA, Pfalz, Germany). Pipettes were pulled from 1.5 mm capillary tubing using a P-1000 puller (Sutter Instrument, Novato, CA, USA). The pipette resistance was 2–4 MΩ.
(§3) For current-clamp recordings, to record changes in membrane potential, patch pipettes were filled with intracellular solution containing the following (in mM): KCl 140, MgCl2 5, CaCl2 2.5, EGTA 5, ATP 4, GTP 0.3, and HEPES 10 (pH adjusted to 7.3 with KOH). The external solution contained the following (in mM): NaCl 140, MgCl2 1, KCl 5, CaCl2 2, glucose 10, and HEPES 10 (pH adjusted to 7.3 with NaOH). The membrane potentials were recorded by a 0 pA input current with a duration of 1 s. For voltage-clamp recordings, to record potassium currents, patch pipettes were filled with an internal solution containing (in mM): KCl 140, CaCl2 1, MgCl2 2.5, HEPES 10, EGTA 11, and ATP 4, and pH was adjusted to 7.2 with KOH. Cells were bathed in an external solution containing the following (in mM): choline chloride 150, KCl 5, MgCl2 1, HEPES 10, D-glucose 10, and NMDG 2, and pH was adjusted to 7.4 with KOH. […] Data were collected and analyzed using PatchMaster (HEKA Electronics, Pfalz, Germany) and SigmaPlot (version 10.3, Sigma-Aldrich). […]
In general terms: In patch-clamp work, channel activity is measured electrically.

Test [2] has as its system spinal cord neurons (SCNs). Put plainly: Neurite outgrowth, MAP2 immunocytochemistry in SCNs. Type of test: cell-based, C57BL/6 mice. The method, then: as §1
Immunocytochemistry was performed as described previously. After fixation, permeabilization, and blocking, neurons were incubated with primary antibody against MAP2 (1:1000) overnight at 4 °C and Alexa Fluor 488-conjugated goat anti-rabbit secondary antibody (1:1000) for 1 h at room temperature (RT), respectively. Hoechst 33,342 (1.6 μg/mL) was added into each well and incubated for 20 min to stain the nuclei. The images were captured by an eclipse inverted fluorescence microscope (Nikon, Tokyo, Japan). Neurites were manually tracked using ImageJ software (FIJI, version 1.51 g, NIH, Bethesda, MD, USA). Only the neurons with total neurite length ≥50 μm were used for quantification. The experiment was performed double blindly.

Test [3] relates to spinal cord neurons (SCNs). Put plainly: Spontaneous calcium oscillation (SCO) measurement, FLIPR Tetra, primary cultured spinal cord neurons. It is filed as cell-based, C57BL/6 mice. Particulars: 6-8 DIV, N = 4 wells; for EC50: primary cultured SCNs, FLIPR Tetra, Hill slope = 1.0. Here is the method: as §1
The intracellular Ca^2+ concentration [Ca^2+]i of SCNs was measured using FLIPR^Tetra® system (Molecular Devices, Sunnyvale, CA, USA) as described previously.
All data were presented as mean ± SEM. Graphing and data analysis were performed using GraphPad Prism software (Version 6.0, San Diego, CA, USA). Concentration–response curves were fitted by a nonlinear logistic equation. The IC50 values and 95% confidence intervals (CI) were determined by nonlinear regression using GraphPad Prism software. Statistical significance between different groups was calculated using an ANOVA and, where appropriate, a Dunnett′s multiple comparison test. A p-value below 0.05 was considered statistically significant.

Test [4] has as its system spinal cord neurons (SCNs), membrane potential. Put plainly: Membrane potential, whole-cell current-clamp recording in SCNs. It is filed as cell-based, C57BL/6 mice. The method, then: as §1, §2
For current-clamp recordings, to record changes in membrane potential, patch pipettes were filled with intracellular solution containing the following (in mM): KCl 140, MgCl2 5, CaCl2 2.5, EGTA 5, ATP 4, GTP 0.3, and HEPES 10 (pH adjusted to 7.3 with KOH). […] The membrane potentials were recorded by a 0 pA input current with a duration of 1 s. […] Data were collected and analyzed using PatchMaster (HEKA Electronics, Pfalz, Germany) and SigmaPlot (version 10.3, Sigma-Aldrich). […]

Test [5] relates to Kv channels, outward K+ currents (IK) in SCNs. Put plainly: Outward K+ current IK (IA + ID), whole-cell patch clamp in SCNs. It is filed as cell-based, C57BL/6 mice. Here is the method: as §1, §2
For current-clamp recordings, to record changes in membrane potential, patch pipettes were filled with intracellular solution containing the following (in mM): KCl 140, MgCl2 5, CaCl2 2.5, EGTA 5, ATP 4, GTP 0.3, and HEPES 10 (pH adjusted to 7.3 with KOH). The external solution contained the following (in mM): NaCl 140, MgCl2 1, KCl 5, CaCl2 2, glucose 10, and HEPES 10 (pH adjusted to 7.3 with NaOH). The membrane potentials were recorded by a 0 pA input current with a duration of 1 s. For voltage-clamp recordings, to record potassium currents, patch pipettes were filled with an internal solution containing (in mM): KCl 140, CaCl2 1, MgCl2 2.5, HEPES 10, EGTA 11, and ATP 4, and pH was adjusted to 7.2 with KOH. Cells were bathed in an external solution containing the following (in mM): choline chloride 150, KCl 5, MgCl2 1, HEPES 10, D-glucose 10, and NMDG 2, and pH was adjusted to 7.4 with KOH. To record sodium currents, patch pipettes were filled with an internal solution containing the following (in mM): CsF 135, HEPES 5, and NaCl 10, and pH was adjusted to 7.2 with CsOH. Cells were bathed in external solution containing the following (in […]): NaCl 30, MgCl2 1, CaCl2 1.8, CsCl 5, D-glucose 25, KCl 5, HEPES 5, TEACl 90, and KCl 5, and pH was adjusted to 7.4 with NaOH. Capacitance and series resistance were compensated using computer-controlled circuitry of the amplifier. The outward potassium currents (IK), which contain both transient (IA) and sustained delayed-rectifier (ID) components, were elicited by a series of depolarizing pulses from −110 mV to the potentials ranged from −60 to +80 mV in a 10 mV increment. To record the ID currents, voltages were stepped to the potentials ranged from −60 to +80 mV in a 10 mV increment from a 200 ms pre-depolarization potential of −40 mV that inactivated IA currents. IA currents were obtained by subtracting ID currents from IK currents. Na^+ currents were elicited by depolarization steps from a holding potential of −100 mV to +45 mV in a 5 mV increment. Data were collected and analyzed using PatchMaster (HEKA Electronics, Pfalz, Germany) and SigmaPlot (version 10.3, Sigma-Aldrich). Concentration–response curves were fitted using the Hill equation: Inor= C + A/[1 + ([BmK NSPK]/EC50)^p] […]
(§4) All data were presented as mean ± SEM. […] Statistical significance between different groups was calculated using an ANOVA and, where appropriate, a Dunnett′s multiple comparison test. […]

In test [6] the test system is Kv channels, delayed-rectifier (ID) currents in SCNs. Put plainly: Sustained delayed-rectifier K+ current ID, whole-cell patch clamp in SCNs. It is filed as cell-based, C57BL/6 mice. Here is the method: as §1, §2, §3, §4
Test [7] relates to Kv channels, transient (IA) currents in SCNs. Put plainly: Transient K+ current IA, whole-cell patch clamp in SCNs. It is filed as cell-based, C57BL/6 mice. The method, then:
as §1, §2, §3, §4

Test [8] concerns nerve growth factor (NGF) release in SCNs. Put plainly: NGF release into culture medium of SCNs, ELISA. It is filed as cell-based, C57BL/6 mice. Particulars: 10 nM, n = 4. Here is the method:
The NGF levels in the culture medium were determined by enzyme-linked immunosorbent assay (ELISA) kits according to the manufacturer’s instructions.
(An ELISA detects its analyte on a solid surface through an enzyme-linked reagent.)

Test [9] concerns protein kinase B (Akt) phosphorylation in SCNs. Put plainly: Akt phosphorylation in SCNs, Western blot. Type of test: cell-based, C57BL/6 mice. Particulars: 30 nM, n = 4. The method, then:
Equal amounts (30 μg) of cell lysates were loaded onto a 10% SDS-PAGE gel and transferred to a nitrocellulose membrane by electroblotting. After blocking, the blots were incubated with primary antibodies against p-Akt (1:1000) overnight at 4 °C and then incubated with the IRDye (680 RD or 800 CW)-labeled secondary antibodies (1:10,000) for 1 h at RT. The membranes were scanned and densitometry was quantified using LI-COR Odyssey Infrared Imaging System and its application software (version 2.1, LI-COR Biotechnology). The membranes were stripped with stripping buffer (LI-COR Biotechnology) and reblotted for analysis of the expression of Akt. Beta-tubulin (1:10,000) was used as a loading control.
In general terms: Immunoblotting shows a protein as a band on a membrane.

On to nerve growth factor [NGF], for which the “Effect on neurite extension” value in the test on PC12 cells and in the test with sensory neurons was “enhance the neurite extension” in each case.

For `NC1=N[C@H](O)[C@H]2[C@H]3O[C@]4(O)O[C@@H]([C@@H](O)[C@@]2(N1)[C@@H]4O)[C@]3(O)CO` [tetrodotoxin, reference compound], the “Effect on Na+ currents” value in test [1] is “suppressed the Na^+ currents”.

On to `Cn1cc(/C=C2\C(=O)Nc3cccnc32)c2ccccc21` [GW 441756, reference compound], for which, in [2] (GW 441756 1 μM added 30 min before BmK NSPK (10 nM), 48 h, p < 0.01 vs. BmK NSPK), the “Effect on BmK NSPK-induced neurite outgrowth” value is listed as “abolished BmK NSPK-induced neurite outgrowth”.

In general, EC50 refers to the concentration needed to bring the measured effect to its halfway point. As usually defined, the IC50 is the concentration that gives 50% inhibition. Consider “BmK NSPK: new short-chain scorpion peptide purified from Buthus martensii Karsch venom, Kv channel inhibitor, sequence by Edman degradation (VGKNVICIHSGQCLIPCIDAGMRFGICKNGICDCTPKG)”, for which the “Effect on amplitude and frequency of SCOs” value in test [3] (SCNs) was “rapid and sustained increase in both the amplitude and frequency of SCOs”. Further, the EC50 turned out to be 6.22 nM in test [3] (95% CI 2.22–17.4 nM, read-out: EC50 for increase in SCO frequency) and 13.4 nM in test [3] (95% CI 4.00–45.1 nM, read-out: EC50 for increase in SCO amplitude). Moreover, in [4] (SCN cultures, discussion wording), the “Apparent affinity for membrane depolarization (and SCO increase)” value was “low apparent nanomolar affinity”. In addition, the “Effect on membrane potential” value in test [4] (SCNs, 6-8 DIV, 0 pA input, whole-cell current clamp) is “concentration-dependent membrane depolarization”. Also, the “Voltage dependence of IK inhibition” value in [5] (300 nM) is on record as “voltage-dependent”. For the same compound, in test [5] (300 nM, depolarizing potentials −60 to +80 mV from holding −110 mV), the “Effect on IK currents” value is “inhibited the IK currents at all depolarized potentials”. In addition, the IC50 in test [5] (depolarization from -110 mV to +70 mV, 95% CI 0.68–8.61 nM, Hill slope = −0.86, N = 4–5 neurons, read-out: IC50, suppression of IK currents) came to 2.42 nM; in test [6] (depolarization from -40 mV to +70 mV, 95% CI 0.68–7.44 nM, Hill slope = −0.86, N = 4–5 neurons, read-out: IC50, suppression of ID currents) it was 2.24 nM; in [7] (IA = IK minus ID, 95% CI 0.41–2.13 nM, Hill slope = −1.27, N = 4–5 neurons, read-out: IC50, suppression of IA currents), 0.93 nM. Moreover, the “Potency on outward potassium channel currents” value in test [5] (discussion wording, SCNs) is on record as “single-digit nanomolar concentrations”. In addition, the “Completeness of inhibition of IK, IA and ID currents” value in [5] (highest concentration (100 nM)) is on record as “incomplete even at the highest concentration (100 nM)”. Besides, in test [6] (300 nM, potentials −60 to +80 mV after 200 ms pre-depolarization at −40 mV), the “Effect on ID currents” value is on record as “inhibited ID currents elicited by a series of depolarization potentials with voltage dependence”. The “Maximal inhibition of ID currents” value in [6] (Figure 4J) was ~ 43%. For the same compound, the “Effect on IA currents” value in [7] (300 nM, each depolarizing potential) is “suppressed IA currents at each depolarizing potential”. Also, in test [7] (Figure 4J), the “Maximal inhibition of IA currents” value is recorded as ~ 75%. In [1] (1000 nM, holding −100 mV to +45 mV in 5 mV increments, N = 4–5 neurons), the “Effect on Na+ currents” value is recorded as “no effect on the Na^+ currents”. Besides, the “Effect on VGSCs” value in [1] (discussion wording) is listed as “little effect on VGSCs”. In addition, the “Concentration of maximal stimulation of neurite extension” value in test [2] (48 h exposure commencing 5 h post-plating) is reported as ~ 10 nM. Further, the “Effect on neurite extension” value in [2] (48 h exposure commencing 5 h post-plating, MAP2 staining) is listed as “stimulated neurite extension in cultured SCNs in a nonmonotonic manner”. For the same compound, in test [8], the “Duration of NGF release” value is “at least 8 h”. Further, in test [8] (p < 0.05 vs. Veh), the “Increase in NGF release” value is on record as ~ 50%. Besides, the “Duration of Akt phosphorylation increase” value in test [9] is listed as at least 30 min. Moreover, the “Onset of Akt phosphorylation increase” value in [9] is reported as at most 5 min. For the same compound, in test [9] (p < 0.01 vs. Veh), the “Phosphorylated levels of Akt” value is listed as “rapidly increased phosphorylated levels of Akt”.

(Values after PMC7824859, “BmK NSPK, a Potent Potassium Channel Inhibitor from Scorpion Buthus martensii Karsch, Promotes Neurite Outgrowth via NGF/TrkA Signaling Pathway” (Toxins, 2021).)
